Experimental data taken from paper PMC6891695, “Evaluation of Antifouling Potential and Ecotoxicity of Secondary Metabolites Derived from Red Algae of the Genus Laurencia” (Marine Drugs, 2019).

Columns and labels:
HEK293 cell line = test: HEK293 alamar blue/resazurin assay (mitochondria function); format: cell-based, human; settings: for EC50: Homo sapiens, HEK293, Alamar blue/Resazurin assay, 48 h incubation; for effect on mitochondrial function and metabolism (in words): HEK293
Method: The RTL-W1 cell line, a non-transformed rainbow trout liver cell line that has already been used in environmental toxicity assays, was established from the normal liver of an adult rainbow trout by proteolytic dissociation of liver fragments. RTL-W1 cells were cultured in 75 cm^2 culture flasks (Orange Scientific, Braine l’Alleud, Belgium) at 20 °C in Leibovitz’s (L-15, Sigma-Aldrich, St. Louis, MO, USA) medium supplemented with 5% fetal bovine serum (FBS) and 1% L-glutamine in CO2-free incubator. For the cytotoxicity assays of the selected secondary metabolites, cells were seeded at 3 × 10^4 cells/well density in a 96-well tissue culture plate (Orange Scientific Braine l’Alleud, Belgium) in 100 μL culture medium/well for 2 days before the assays. Three different cytotoxicity protocols were used: 1) The alamar blue/resazurin fluorometric/colorimetric cell viability assay to assess the metabolic capacity and mitochondrial function; 2) the crystal violet cell viability assay for indirect quantification of cell death; and 3) the neutral red cell proliferation assay for lysosomal activity. Two days after seeding the cells, cultures were incubated with various concentrations of selected secondary metabolites at 20 °C for 48 h before cell viability was assessed. […] For the alamar blue/resazurin fluorometric/colorimetric cell viability assay, 100 μL of 3 μg/100 μL Resazurin sodium salt (Sigma-Aldrich, St. Louis, MO, USA) in incubation medium was added on each well and incubated under sterile conditions at 20 °C for 4 h. For the crystal violet cell viability assay, after 48 h of incubation with each secondary metabolite, the culture medium was aspirated and cells were washed twice with sterile dd. H2O. The final wash was aspirated and 50 μL of 0.5% (w/v) crystal violet staining solution (20% methanol in dd. H2O) was added to each well followed by incubation for 20 min at room temperature on a bench rocker with a frequency of 20 oscillations per minute. The staining solution was then aspirated and the plate was washed four times with sterile dd. H2O and left to air-dry without its lid for 3 h at room temperature. Next, 200 μL of methanol was added to each well, and the plate was incubated with its lid on for 20 min at room temperature on a bench rocker with a frequency of 20 oscillations per minute. For the neutral red cell proliferation assay, after 48 h of incubation with each secondary metabolite, the culture medium was aspirated and cells were washed twice with phosphate-buffered saline (PBS, pH 7.4). Cells were then incubated with 100 μL of a 40 μg/mL neutral red staining solution in culture medium at 20 °C for 4 h followed by two washes with 150 μL of PBS. Then cells were incubated with 100 μL neutral red destain solution (50% ethanol, 49% dd. H2O, 1% glacial acetic acid) for 10 min on a bench rocker with a frequency of 80 oscillations per minute. Absorbance was read at 570 nm for alamar blue/resazurin and crystal violet and at 540 nm for neutral red using a Tecan infinite M200 Pro microplate reader. For each assay and each secondary metabolite, a minimum of four independent dose–response experiments with three replicates each were carried out. Calculations were carried out using detailed formulas (AbCam, Cambridge, UK, and results were analyzed with GraphPad Prism v.6.
HEK293 cells, a human embryotic kidney cell line, were obtained from ATCC (ATCC® CRL-1573™) at passage 37 of the original clone and used at passage 38. Cells were cultured routinely in 75 cm^2 culture flasks (Orange Scientific, Braine l’Alleud, Belgium) at 37 °C (5% CO2) in DMEM cell culture medium (Biosera) supplemented with 10% FBS (Sigma-Aldrich, St. Louis, MO, USA) and 1% L-glutamine. All assay conditions and protocols were identical to those described above for RTL-W1 cells with the exception that incubations were carried out at 37 °C. […]

Bacillus mojavensis = test: Marine bacteria growth assay (disc diffusion); format: cell-based; settings: 24 h at 25 °C
Method: (§1) The ability of selected metabolites to inhibit the growth of bacteria was assessed using five strains of marine bacteria involved in marine surface biofilm formation, namely, B. subtilis, B. mojavensis, B. thuringiensis, P. putita and P. pseudoalcaligenes. Bacterial strains were maintained on Zobel marine agar plates. Sterile filter paper discs (4 mm) (GF/F; GE Healthcare, Little Chalfont, UK) were loaded with 40 μL samples of serial dilutions of each tested metabolite, allowed to dry at room temperature and then placed on agar plates (Zobel marine agar, pH = 7.3), which were seeded with a single strain of bacteria. Plates were incubated for 24 h at 25 °C. Marine bacteria growth inhibition was determined by measuring the zone of inhibition in mm around the filter paper disc. As a positive and negative control, standard discs were loaded with 40 μL of 0.5 M penicillin G (2 to 10 mm diameter) or solvent (40 μL methanol), respectively.

Bacillus subtilis = test: Marine bacteria growth assay (disc diffusion); format: cell-based; settings: 24 h at 25 °C
Method: as §1

Bacillus thuringiensis = test: Marine bacteria growth assay (disc diffusion); format: cell-based; settings: 24 h at 25 °C
Method: as §1

[1] = system: Pseudomonas pseudoalcaligenes; test: Marine bacteria growth assay (disc diffusion); format: cell-based; settings: 24 h at 25 °C
Method: as §1

Pseudomonas putita = test: Marine bacteria growth assay (disc diffusion); format: cell-based; settings: 24 h at 25 °C
Method: as §1

Row | SMILES | EC50 (HEK293 cell line) [µM] | effect on bacterial growth (Bacillus mojavensis) | effect on bacterial growth (Bacillus subtilis) | effect on bacterial growth (Bacillus thuringiensis) | effect on bacterial growth [1] | effect on bacterial growth (Pseudomonas putita) | effect on mitochondrial function and metabolism (in words) (HEK293 cell line)
1 | CC(C)[C@@H]1CC=C[C@H]2[C@H]3[C@](C)(CC[C@]12CBr)[C@@H](Br)CC[C@@]3(C)O [Bromosphaerol, reference compound] | 57.6 | none of these metabolites had any effect | none of these metabolites had any effect | none of these metabolites had any effect | none of these metabolites had any effect | none of these metabolites had any effect | 
2 | C=CC(C)(O)CC[C@@H]1C(=C)CC[C@@H](Br)[C@@]1(C)CCC1OC1(C)C (some centres unmarked) [Compound 18] | 0.225 | none of these metabolites had any effect | none of these metabolites had any effect | none of these metabolites had any effect | none of these metabolites had any effect | none of these metabolites had any effect | very selective against mitochondrial function and metabolism
3 | CC1=C2CC[C@@](C)(Cl)[C@@H](Br)C[C@]2(C)[C@@H](C)[C@@H](Br)[C@@H]1O [Compound 9, perforenol] | 10.8 | none of these metabolites had any effect | none of these metabolites had any effect | none of these metabolites had any effect | none of these metabolites had any effect | none of these metabolites had any effect | 
4 | C=C(C1CCC(C)(O)C(Br)C1)C1C(Br)C2C(CCC2(C)O)C1(C)C (centres unmarked) [Compound 19, neorogioldiol] | 0.062 | none of these metabolites had any effect | none of these metabolites had any effect | none of these metabolites had any effect | none of these metabolites had any effect | none of these metabolites had any effect | very selective against mitochondrial function and metabolism
